{"source": "ChEMBL document CHEMBL6071160", "about": "“Identification of a novel 10-hydroxyevodiamine prodrug as a potent topoisomerase inhibitor with improved aqueous solubility for treatment of hepatocellular carcinoma” (Eur J Med Chem, 2024)", "key": {"SK-HEP1 [1]": {"system": "SK-HEP1", "assay": "Induction of cell cycle arrest in human SK-HEP1 cells assessed as accumulation of cells at G1 phase 40 nM measured after 24 hrs by flow cytometric assay (reference value: 47.55%)", "type": "functional"}, "SK-HEP1 [2]": {"system": "SK-HEP1", "assay": "Induction of apoptosis in human SK-HEP1 cells assessed as ROS generation by measuring DCFH2-DA stained cells at 80 nM measured after 24 hrs […] (reference value: 0.14%)", "type": "functional"}, "Huh-7 [3]": {"system": "Huh-7", "assay": "Induction of cell cycle arrest in human Huh-7 cells assessed as accumulation of cells at G2 phase 20 nM measured after 24 hrs by flow cytometric assay (reference value: 13.66%)", "type": "functional"}, "Huh-7 [4]": {"system": "Huh-7", "assay": "In vivo antitumor activity against human Huh-7 cells subcutaneously injected into BALB/C nude mouse assessed as tumor growth inhibition at 10 mg/kg, ip administered once daily measured after 14 days", "type": "functional", "settings": "Huh-7, 336 h, time 14 day, read-out: TGI"}, "SK-HEP1 [5]": {"system": "SK-HEP1", "assay": "Inhibition of cell migration in human SK-HEP1 cells at 20 nM measured for 24 hrs by scratch wound healing assay", "type": "functional, cell-based"}, "[6]": {"assay": "AUC (0 to t) in Sprague-Dawley rat at 10 mg/kg, ip measured upto 24 hrs by LC-MS/MS analysis", "type": "ADME, organism-based", "settings": "in vivo"}}, "note": "The source made the active and inactive calls. The rule behind the calls is not given here.", "data": [{"smiles": "C[N+](C)(C)CCC(=O)Oc1ccc2[nH]c3c(c2c1)CCN1C(=O)c2cc(F)cc(F)c2N(c2cccc(F)c2)C31.[I-]", "note": "(stereo unspecified)", "values": [{"measurement": "Activity", "setting": "SK-HEP1 [1]", "value": 43.86, "unit": "%"}, {"measurement": "Activity", "setting": "SK-HEP1 [2]", "value": 56.75, "unit": "%"}, {"measurement": "Activity", "setting": "Huh-7 [3]", "value": 5.93, "unit": "%"}, {"measurement": "inhibition in vivo at 10 mg/kg", "setting": "Huh-7 [4]", "value": 83.3, "unit": "%"}, {"measurement": "inhibition", "setting": "SK-HEP1 [5]", "value": "Active"}, {"measurement": "AUC(0-t) at 24 h", "setting": "[6]", "value": 1540, "unit": "ng·h/mL"}]}]}
